One compound from paper PMC12638379, “An innovative approach to development of new pyrazolylquinolin-2-one hybrids as dual EGFR and BRAF^V600E inhibitors” (Molecular Diversity, 2025) can be followed below.

The structures appear in SMILES notation. “And” between values parts separate entries of the source, which are not always exact repeats. Equal entries are not always repeated. Where two headings read alike, the source gives them in different places.

Data set [1] deals with breast cancer (T47D) cell line. In words: MTT antiproliferative assay, T-47D. The procedure:
The median inhibitory concentration (IC50) and GI50 (average IC50) against the three cancer cell lines were calculated. See Appendix B.
Cells were cultured using DMEM (Invitrogen/Life Technologies) supplemented with 10% FBS (Hyclone,), 10 ug/ml of insulin (Sigma), and 1% penicillin-streptomycin. Plate cells (cells density 1.2 – 1.8 × 10,000 cells/well) in a volume of 100µl complete growth medium + 100 ul of the tested compound per well in a 96-well plate for 24 hours before the MTT assay. In atypical experiment, one hundred micro liters of serial 10-fold diluted sterile tested compounds were added to final concentrations of […] using culture media as negative control. After 24 h of culture incubation and supernatants discarded. HOP-92 lung, MOLT-4 leukemia, and T-47D breast cell lines were trypsinized and washed with Ca2/Mg2 free PBS (pH 7.2). we removed cultures from incubator into laminar flow hood or other sterile work area. […] Each test should include a blank containing complete medium without cells. […] Add reconstituted MTT in an amount equal to 10% of the culture medium volume. Return cultures to incubator for 2-4 hours depending on cell type and maximum cell density. […] Spectrophotometrically absorbance was measured at a wavelength of 570 nm. Measure the background absorbance of multiwell plates at 690 nm and subtract from the […] measurement. Results from all experiments were recorded and the percentage of viable cells was calculated.
On the technique in general: Tetrazolium dyes change colour on reduction, which living cells bring about.

The test system of data set [2] is lung cancer (HOP-92) cell line. Briefly: MTT antiproliferative assay, HOP-92. It is filed as cell-based, human. The note with it: for % viability: listed as STA. Here is the method:
[…]. […] See Appendix B.
(§1) After 24 h of culture incubation and supernatants discarded.

In data set [3] the test system is leukemia (MOLT-4) cell line. Briefly: MTT antiproliferative assay, MOLT-4. It is filed as cell-based, human. Here is the method: as §1
Data set [4] has as its system normal cell line WI-38. In words: MTT cytotoxicity on normal cell line WI-38. The settings on record: listed as STA.

On to `CN[C@@H]1C[C@H]2O[C@@](C)([C@@H]1OC)n1c3ccccc3c3c4c(c5c6ccccc6n2c5c31)C(=O)NC4` [Staurosporine, reference compound], for which the viability – broadly, a per cent measure of how many cells are alive, often set against a control – at 0.4 µM was 69% in data set [1] (Homo sapiens, T47D) and 69.4% in data set [2] (Homo sapiens, HOP-92, HOP-92, MTT, 0.4uM). Besides, the viability at 6.3 µM in data set [1] (Homo sapiens, T47D, 6.3uM (log 0.796)) came out at 45.9%; in data set [2] (Homo sapiens, HOP-92, HOP-92, MTT, 6.3uM) it was 43.2%. Also, the viability at 25 µM in data set [1] (Homo sapiens, T47D, 25uM (log 1.398)) is 35%; in data set [2] (Homo sapiens, HOP-92, HOP-92, MTT, 25uM), 24.7%. Moreover, the viability at 100 µM in data set [1] (Homo sapiens, T47D, 100uM (log 2), MTT absorbance 450 nm) came to 29.6%; in data set [2] (Homo sapiens, HOP-92, HOP-92, MTT, 100uM) it was 17.2%. Moreover, the “% viability” value was 61.548% and 61.55% in data set [1] (T47D, 1.6ug (log 0.193), listed as STA); 69.04% in data set [1] (human, 0.4 µM); 69.37% in data set [2] (HOP-92, MTT, 0.4uM); 61.2% in data set [2] (HOP-92, MTT, 1.6uM); 43.16% in data set [2] (HOP-92, MTT, 6.3uM); 17.16% in data set [2] (HOP-92, MTT, 100uM). The “% viability” value was 72.582% and 72.58% in data set [3] (MOLT-4, 0.4ug (log conc. -0.41), listed as STA); 62.059% and 62.06% in data set [3] (MOLT-4, 1.6ug (log conc. 0.193), listed as STA); 51.82% in data set [3] (MOLT-4, 6.3ug (log conc. 0.796)); 36.23% in data set [3] (MOLT-4, 25ug (log conc. 1.398)); 24.46% in data set [3] (MOLT-4, 100ug (log conc. 2)); 68.1% in data set [4] (WI38, 1.6uM (log conc. 0.19), 1.6 µM). Further, the “% viability” value in data set [4] (WI38, 100uM (log conc. 2), 100 µM) came out at 37.43%. Also, the viability at 1.6 µM in data set [2] (Homo sapiens, HOP-92, HOP-92, MTT, 1.6uM) is 61.2%. Also, the IC50 (as a rule, the point on the concentration scale where inhibition reaches its midpoint) is 3.17 ± 0.19 µM in data set [2] (Homo sapiens, HOP-92, MTT, read-out: Antiproliferative activity IC50 ± SEM, HOP-92) and 3.17 µM in data set [2] (Homo sapiens, HOP-92, concentration used in RT-PCR, read-out: IC50).
